# Results taken from ChEMBL document CHEMBL1201862, “PubChem BioAssay data set” (2004).
# Active and inactive are the calls of the source.
# How the values were obtained:
# HeLa = test: viability loss in HeLa cells – cell-based, 24 h, cherry-picked samples, cytotoxicity control, dose response (AID 504726); type: functional; conditions: Homo sapiens;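 note: potency for cytotoxicity as loss of luminescence signal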
# Large T antigen = Large T antigen (Simian virus 40, UniProt P03070); type: functional, Betapolyomavirus macacae;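 note: Confirmatory-stage PubChem screen for compounds that inhibit SV40 T antigen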
# Sequence of Large T antigen (P03070 whole entry): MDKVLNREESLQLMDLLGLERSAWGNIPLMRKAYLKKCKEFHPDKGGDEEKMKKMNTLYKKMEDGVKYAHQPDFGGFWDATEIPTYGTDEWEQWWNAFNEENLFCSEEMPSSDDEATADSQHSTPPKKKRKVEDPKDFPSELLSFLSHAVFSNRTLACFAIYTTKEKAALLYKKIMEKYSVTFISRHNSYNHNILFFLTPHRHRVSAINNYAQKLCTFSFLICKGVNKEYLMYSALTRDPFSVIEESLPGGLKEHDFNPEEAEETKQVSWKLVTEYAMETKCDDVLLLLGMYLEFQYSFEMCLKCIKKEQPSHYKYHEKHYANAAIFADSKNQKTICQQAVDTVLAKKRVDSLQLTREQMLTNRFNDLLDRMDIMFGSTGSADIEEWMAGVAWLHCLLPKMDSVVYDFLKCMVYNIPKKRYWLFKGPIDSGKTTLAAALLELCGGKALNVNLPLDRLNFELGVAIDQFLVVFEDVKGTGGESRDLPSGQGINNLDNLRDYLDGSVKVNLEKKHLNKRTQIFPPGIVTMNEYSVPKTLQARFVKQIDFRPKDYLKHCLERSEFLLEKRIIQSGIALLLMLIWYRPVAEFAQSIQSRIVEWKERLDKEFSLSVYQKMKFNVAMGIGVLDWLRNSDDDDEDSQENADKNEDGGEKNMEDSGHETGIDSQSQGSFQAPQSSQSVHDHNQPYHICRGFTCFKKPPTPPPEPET
# [1] = HEK-293T cell viability reduction – luminescence, B-cell screen hits, cytotoxicity control for BCR NF-kB inhibitor project, dose response (AID 489021); type: functional, cell-based;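 note: HEK-293T cells carrying an NF-kB luciferase reporter; cells exposed to compound for about 14 hours before viability readout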
# [2] = alpha-synuclein stem-loop translation blockers – luminescence, H4 neuroglioblastoma cells, dose confirmation, confirmation (AID 2454); type: functional, cell-based;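 note: H4 neuroglioblastoma cells carrying an alpha-synuclein 5'UTR luciferase reporter; potency for inhibition of the luciferase signal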
# [3] = luciferase reporter signal suppression in cells – H4 neuroglioma cells, luminescence, dose response (AID 1990); type: functional, cell-based
# [4] = alpha-synuclein stem-loop luciferase translation blockers – H4 neuroglioma cells, luminescence, confirmation (AID 1988); type: functional, cell-based
# [5] = Luminescence Cell-Based Dose Response HTS to Identify Inhibitors of 5'UTR Stem-Loop Driven Prion Protein mRNA Translation in H4 Neuroglioblastoma Cells. [Related pubchem assays: 1827 (Project Summary), 1813 (Primary HTS)]; type: functional
# cells = type: functional, cell-based
# [6] = luciferase reporter signal reduction – luminescence, H4-C neuroglioblastoma cells, dose response (AID 2458); type: functional, cell-based;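 note: H4 neuroglioblastoma cells stably carrying a luciferase reporter gene fusion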
# [7] = HEK-293T viability loss after treatment – luminescence, T-cell screen hits, cytotoxicity control for TCR NF-kB inhibitor project, dose response (AID 489026); type: functional, cell-based;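 note: cells exposed to compound about 14 hours before the viability readout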
# Vero [8] = test: cells; type: functional; conditions: Chlorocebus sabaeus
# NS3 = NS3 (Hepatitis C virus, UniProt A3EZJ3); test: PubChem AID 2173; set-up: species or system Hepacivirus hominis
# Sequence of NS3 (A3EZJ3 whole entry): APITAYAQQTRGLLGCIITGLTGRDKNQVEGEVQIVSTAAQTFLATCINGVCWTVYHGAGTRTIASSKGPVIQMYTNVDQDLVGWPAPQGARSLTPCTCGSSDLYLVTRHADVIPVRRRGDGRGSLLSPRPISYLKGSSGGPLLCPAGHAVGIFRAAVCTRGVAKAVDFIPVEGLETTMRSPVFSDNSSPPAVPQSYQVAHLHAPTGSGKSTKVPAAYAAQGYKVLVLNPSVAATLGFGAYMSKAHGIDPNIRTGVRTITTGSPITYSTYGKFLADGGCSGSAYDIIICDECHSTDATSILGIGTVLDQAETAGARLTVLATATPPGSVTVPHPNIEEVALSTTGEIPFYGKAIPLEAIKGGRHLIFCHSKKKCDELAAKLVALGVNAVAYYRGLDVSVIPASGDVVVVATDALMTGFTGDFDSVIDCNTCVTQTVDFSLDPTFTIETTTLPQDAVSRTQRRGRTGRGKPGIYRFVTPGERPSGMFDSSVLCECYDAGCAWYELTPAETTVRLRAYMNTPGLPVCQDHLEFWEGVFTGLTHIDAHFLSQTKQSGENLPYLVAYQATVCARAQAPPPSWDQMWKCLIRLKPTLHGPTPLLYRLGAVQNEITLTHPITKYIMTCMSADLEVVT
# [9] = biological target: Induced myeloid leukemia cell differentiation protein Mcl-1 (Homo sapiens, UniProt Q07820); type: functional
# Sequence of Induced myeloid leukemia cell differentiation protein Mcl-1 (Q07820 whole entry): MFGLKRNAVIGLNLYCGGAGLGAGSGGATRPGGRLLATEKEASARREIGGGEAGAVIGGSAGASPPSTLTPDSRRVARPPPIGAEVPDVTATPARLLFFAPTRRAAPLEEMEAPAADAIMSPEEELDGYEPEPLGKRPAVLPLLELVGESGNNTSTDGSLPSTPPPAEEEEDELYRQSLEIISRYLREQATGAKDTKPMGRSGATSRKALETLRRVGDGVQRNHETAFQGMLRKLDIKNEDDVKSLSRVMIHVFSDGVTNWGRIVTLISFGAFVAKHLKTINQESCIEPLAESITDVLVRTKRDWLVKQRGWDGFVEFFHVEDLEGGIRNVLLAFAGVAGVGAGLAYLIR
# INS1 = test: INS-1E survival protection against cytokine death – cell-based, luminescence, retest, dose response (AID 449756); type: functional; conditions: Rattus norvegicus;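 note: cell death triggered by IL-1 beta plus TNF-alpha plus IFN-gamma mixture; protective hits raise ATP signal compared with cytokine alone wells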
# Vero [10] = test: viability of Vero cells under compound – cytotoxicity control for flavivirus capping enzyme inhibitors (AID 588742); type: functional; conditions: Chlorocebus sabaeus
# CAAX prenyl protease 2 = biological target: T1, CAAX prenyl protease 2 (Saccharomyces cerevisiae S288c, UniProt Q03530); type: biochemical
# T1 sequence (Q03530 whole entry): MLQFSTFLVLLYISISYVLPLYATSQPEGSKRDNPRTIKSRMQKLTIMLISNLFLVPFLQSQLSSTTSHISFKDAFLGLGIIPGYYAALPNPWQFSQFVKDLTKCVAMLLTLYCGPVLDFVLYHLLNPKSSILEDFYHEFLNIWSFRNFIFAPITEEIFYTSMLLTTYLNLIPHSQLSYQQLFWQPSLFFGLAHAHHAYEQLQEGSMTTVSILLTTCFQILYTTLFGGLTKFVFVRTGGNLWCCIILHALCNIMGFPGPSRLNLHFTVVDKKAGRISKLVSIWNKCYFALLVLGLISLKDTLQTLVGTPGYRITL
# [11] = A Cell Based Secondary Assay To Explore Cytotoxicity of Compounds that Sensitize Mycobacterium Tuberculosis to Beta-Lactam Antibiotics.; type: functional
compound,measurement,setting,value
Cc1cc(N)ccc1N=Nc1c(C)n(C)n(-c2ccccc2)c1=O,AC50,HeLa,285 µM (active)
same,IC50,Large T antigen,33.9 µM (active)
COc1ccc(-c2noc(N3CCC(C(=O)Nc4cccc(OC)c4)CC3)n2)cc1,IC50,[1],> 80 µM (inactive)
COc1cc(C(=O)N2CCN(c3cc(Cl)ccc3Cl)CC2)cc(OC)c1OC,EC50,[2],0.575 µM (active)
same,EC50,[3],0.148 µM (active)
same,EC50,[4],< 0.1 µM (active)
same,EC50,[5],0.164 µM (active)
same,EC50,cells,0.457 µM (active)
same,EC50,[6],0.352 µM (active)
same,IC50,[7],> 80 µM (inactive)
COc1ccccc1NC(=O)c1cc2cc(Br)ccc2cc1O,CC50,Vero [8],2.72 µM (active)
same,IC50,NS3,> 4.03 µM (active)
same,IC50,[9],2.63 µM (active)
same,AC50,INS1,6.21 µM (active)
same,CC50,Vero [10],4.04 µM (active)
CCCCOc1ccc(-c2cc(C(F)(F)F)c(C#N)c(SCC(=O)O)n2)cc1,IC50,NS3,1.98 µM (active)
same,AC50,CAAX prenyl protease 2,25.4 µM (active)
COc1cc2nc(N3CCN(C(=O)OCc4ccccc4)[C@H](C(=O)NC(C)(C)C)C3)nc(N)c2cc1OC,CC50,[11],29.3 µM (active)
CCCc1nc(SC)nc(O)c1C,AC50,HeLa,81.7 µM (active)
CC(C)(C)c1ccc(OCc2ccc(C(=O)N/N=C3\CC4CC=CC34)cc2)cc1 (stereo not given),CC50,[11],> 40 µM (active)
